Data taken from US12404244B2, “Pan-KIT kinase inhibitor having quinoline structure and application thereof” (Tarapeutics Science Inc., priority 2018, dated 2025).

What was measured:
Format in all cases: cell-based
[1] = system: TEL-KIT/D820G-BaF3; assay: Proliferation of TEL-KIT/D820G-BaF3 cells (CCK-8); conditions: Mus musculus; 72 hours, CCK-8; read-out: GI50 TEL-KIT/D820G-BaF3
Description: (§1) Compounds as provided herein were further evaluated for their inhibitory effects on proliferation of cancer cells by testing their effects on growth of cancer cells. In this example the following cells were used: primary mouse B cells BaF3 (purchased from ATCC), GIST-T1 cells of the human gastrointestinal stromal tumor cell line (expressing wild-type KIT gene) (purchased from Cosmo Bio Co., Ltd. (Japan)). The present lab further constructed and used the following: mouse Tel-Kit-BaF3 (stably expressing KIT wild-type kinase), mouse Tel-Kit/T670I-BaF3 (stably expressing KIT T670I mutant kinase), mouse Tel-Kit/V559A-BaF3 (stably expressing KIT V559A mutant kinase), mouse Tel-Kit/V559D-BaF3 (stably expressing KIT V559D mutant kinase), mouse Tel-Kit/V559G-BaF3 (stably expressing KIT V559G mutant kinase), mouse Tel-Kit/V560D-BaF3 (stably expressing KIT V560D mutant kinase), mouse Tel-Kit/L576P-BaF3 (stably expressing KIT L576P mutant kinase), mouse Tel-Kit/V654A-BaF3 (stably expressing KIT V654A mutant kinase), mouse Tel-Kit/V654A/V559D-BaF3 (stably expressing KIT V654A V559D mutant kinase), mouse Tel-Kit/T670E-BaF3 (stably expressing KIT T670E mutant kinase), mouse Tel-Kit/T670I/V559D-BaF3 (stably expressing KIT T670I V559D mutant kinase), mouse Tel-Kit/S709F-BaF3 (stably expressing KIT S709F mutant kinase), mouse Tel-Kit/D816E-BaF3 (stably expressing KIT D816E mutant kinase), mouse Tel-Kit/D816H-BaF3 (stably expressing KIT D816H mutant kinase), mouse Tel-Kit/D820E-BaF3 (stably expressing KIT D820E mutant kinase), mouse Tel-Kit/D820G-BaF3 (stably expressing KIT D820G mutant kinase), mouse Tel-Kit/D820Y-BaF3 (stably expressing KIT D820Y mutant kinase), mouse Tel-Kit/N822K-BaF3 (stably expressing KIT N822K mutant kinase), mouse Tel-Kit/Y823D-BaF3 (stably expressing KIT Y823D mutant kinase), mouse Tel-Kit/A829P-BaF3 (stably expressing KIT A829P mutant kinase), GIST-T1-T670I cells of the human gastrointestinal stromal tumor cell line (expressing KIT-T670I mutant gene). The above cell lines were constructed by: amplifying respectively the sequences of human KIT and various mutant kinase regions of KIT via PCR, inserting the fragments respectively into MSCV-Puro vectors having a N-terminal TEL fragment and/or a NPM fragment and/or a TPR fragment (purchased from Clontech), transfecting mouse BaF3 cells with the vectors by means of retrovirus to obtain stably transfected cells, removing the growth factor IL-3, and thereby eventually obtaining cell lines that depend on the transferred protein KIT or various mutants of KIT. […]

[2] = system: TEL-KIT/V559G-BaF3; assay: Proliferation of TEL-KIT/V559G-BaF3 cells (CCK-8); conditions: Mus musculus; 72 hours, CCK-8; read-out: GI50 TEL-KIT/V559G-BaF3
Description: as §1

[3] = system: TEL-KIT/S709F-BaF3; assay: Proliferation of TEL-KIT/S709F-BaF3 cells (CCK-8); conditions: Mus musculus; 72 hours, CCK-8; read-out: GI50 TEL-KIT/S709F-BaF3
Description: as §1

[4] = system: TEL-KIT/V559A-BaF3; assay: Proliferation of TEL-KIT/V559A-BaF3 cells (CCK-8); conditions: Mus musculus; 72 hours, CCK-8; read-out: GI50 TEL-KIT/V559A-BaF3
Description: as §1

[5] = system: TEL-KIT/V654A-BaF3; assay: Proliferation of TEL-KIT/V654A-BaF3 cells (CCK-8); conditions: Mus musculus; 72 hours, CCK-8; read-out: GI50 TEL-KIT/V654A-BaF3
Description: as §1

[6] = system: GIST-T1/T670I; assay: Proliferation of GIST-T1/T670I cells (CCK-8); conditions: Homo sapiens, GISTT1; 72 hours, CCK-8; read-out: GI50 GIST-T1/T670I
Description: as §1, with “gene).” for “gene). The above cell lines were constructed by: amplifying respectively the sequences of human KIT and various mutant kinase regions of KIT via PCR, inserting the fragments respectively into MSCV-Puro vectors having a N-terminal TEL fragment and/or a NPM fragment and/or a TPR fragment (purchased from Clontech), transfecting mouse BaF3 cells with the vectors by means of retrovirus to obtain stably transfected cells, removing the growth factor IL-3, and thereby eventually obtaining cell lines that depend on the transferred protein KIT or various mutants of KIT.”
The cells after incubation were detected using CCK-8 (purchased from MedChem Express, Shanghai, China) cell viability assay kit (CCK-8 may be reduced by dehydrogenase in living cells to a highly water-soluble yellow formazan product, and the amount of the resultant formazan is proportional to the number of living cells), the number of living cells were quantified with a microplate reader, and GI50 of the compounds and the control compounds were calculated (the results shown in Table 2 and Table 3).

[7] = system: TEL-KIT/A829P-BaF3; assay: Proliferation of TEL-KIT/A829P-BaF3 cells (CCK-8); conditions: Mus musculus; 72 hours, CCK-8; read-out: GI50 TEL-KIT/A829P-BaF3
Description: as §1

GI50 [1]: 389 nM
GI50 [2]: 4 nM
GI50 [3]: 28 nM
GI50 [4]: 20 nM
GI50 [5]: 5 nM
GI50 [7]: 180 nM
Structure (SMILES): CCN(CC)CCNC(=O)c1c(C)[nH]c(/C=C2\C(=O)Nc3ccc(F)cc32)c1C [Sunitinib, reference compound]
GI50 [6]: 4 nM
